Results reported in the supplement of paper PMC11208160.

Test: recombinant UMI read abundance after kanamycin selection (control-corrected) (log10(CPM+1)); higher = more efficient recombination; extreme values may be limits of the assay; sequences stand for … in AGTGCAGAGAAAATCGGCCAGTTTTCTCTGCCTGCAGTCCGCATGCCGTGGGACCCCTTGGGTTCTAACCTGTTGCCTAGATTTATGCAGCGGACTGCCTTTCTCCCAAAGTGATAAACCGG…AGGTTGGTTTCACT; site = the 11-nt donor
Procedure, shortened: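 Counts of recombinant UMIs were reported as log10(CPM+1). Before that, they were converted to CPM, averaged over replicates and scaled using control-derived factors. They came from PCR across the donor–target junction after Escherichia coli carrying the pair library and target plasmid was plated on IPTG (0.07 mM) plus kanamycin, or unselected, in two replicates each.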
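Note: IS621 bridge recombinase in Escherichia coli cells against a fixed T5 target plasmid.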

Sequence | recombinant UMI read abundance (log10)
TAGCTGGCATGGACCGGTTTTCCCGGTAATCCGTATTTGAA (site TAGCTGGCTTT) | 0.732
TAGCTGGCATGGACCGGTTTTCCCGGTAATCCGTATTTGAA (site TAGCTTGCTTT) | 0
TAGCTTACATGGACCGGTTTTCCCGGTAATCCGTATTTGTC (site TAGCTTACTGA) | 1.56
TAGCTTCCATGGACCGGTTTTCCCGGTAATCCGTATTTGGG (site TAGCTTCCTCC) | 0.0588
TAGCTTGCATGGACCGGTTTTCCCGGTAATCCGTATTTGAA (site TAGCTAGCTTT) | 0.0193
TAGCTTGCATGGACCGGTTTTCCCGGTAATCCGTATTTGAA (site TAGCTCGCTTT) | 0.0167
TAGCTTGCATGGACCGGTTTTCCCGGTAATCCGTATTTGAA (site TAGCTGGCTTT) | 0.02
TAGCTTGCATGGACCGGTTTTCCCGGTAATCCGTATTTGAA (site TAGCTTGCTTT) | 1.4
TAGCTTTCATGGACCGGTTTTCCCGGTAATCCGTATTTGGT (site TAGCATTCTAC) | 0.374
TAGCTTTCATGGACCGGTTTTCCCGGTAATCCGTATTTGGT (site TAGCCTTCTAC) | 0.157
TAGCTTTCATGGACCGGTTTTCCCGGTAATCCGTATTTGGT (site TAGCGTTCTAC) | 0
TAGCTTTCATGGACCGGTTTTCCCGGTAATCCGTATTTGGT (site TAGCTTTCTAC) | 0.807
TAGGAAACATGGACCGGTTTTCCCGGTAATCCGTATTTGCG (site TAGGAAACTCG) | 2.39
TAGGAAACATGGACCGGTTTTCCCGGTAATCCGTATTTGCG (site TAGGAACCTCG) | 0
TAGGAAACATGGACCGGTTTTCCCGGTAATCCGTATTTGCG (site TAGGAAGCTCG) | 2.11
TAGGAAACATGGACCGGTTTTCCCGGTAATCCGTATTTGCG (site TAGGAATCTCG) | 1.75
TAGGCTGCATGGACCGGTTTTCCCGGTAATCCGTATTTGGT (site TAGGCTGCTAC) | 0.811
TAGGGATCATGGACCGGTTTTCCCGGTAATCCGTATTTGCG (site TAGGAATCTCG) | 2.07
TAGGGATCATGGACCGGTTTTCCCGGTAATCCGTATTTGCG (site TAGGCATCTCG) | 0.735
TAGGGATCATGGACCGGTTTTCCCGGTAATCCGTATTTGCG (site TAGGGATCTCG) | 2.78
TAGGGATCATGGACCGGTTTTCCCGGTAATCCGTATTTGCG (site TAGGTATCTCG) | 1.27
TAGGGATCATGGACCGGTTTTCCCGGTAATCCGTATTTGCT (site TAGGGATCTAG) | 2.31
TAGGGGACATGGACCGGTTTTCCCGGTAATCCGTATTTGTT (site TAGGGGACTAA) | 1.75
TAGGGTGCATGGACCGGTTTTCCCGGTAATCCGTATTTGAC (site TAGGGTGCTGT) | 2.6
TAGGGTGCATGGACCGGTTTTCCCGGTAATCCGTATTTGCC (site TAGGGTGCTGG) | 2.58

Sequence | recombinant UMI read abundance (log10)
TAGGTTACATGGACCGGTTTTCCCGGTAATCCGTATTTGAT (site TAGGTTACTAT) | 1.79
TAGGTTGCATGGACCGGTTTTCCCGGTAATCCGTATTTGGT (site TAGGTTGCTAC) | 1.27
TAGTCTTCATGGACCGGTTTTCCCGGTAATCCGTATTTGGT (site TAGACTTCTAC) | 0.017
TAGTCTTCATGGACCGGTTTTCCCGGTAATCCGTATTTGGT (site TAGCCTTCTAC) | 0.322
TAGTCTTCATGGACCGGTTTTCCCGGTAATCCGTATTTGGT (site TAGGCTTCTAC) | 0.012
TAGTCTTCATGGACCGGTTTTCCCGGTAATCCGTATTTGGT (site TAGTCTTCTAC) | 0.376
TAGTGTACATGGACCGGTTTTCCCGGTAATCCGTATTTGGT (site TAGTGTACTAC) | 0.534
TAGTTGACATGGACCGGTTTTCCCGGTAATCCGTATTTGCT (site TAATTGACTAG) | 1.17
TAGTTGACATGGACCGGTTTTCCCGGTAATCCGTATTTGCT (site TACTTGACTAG) | 0.55
TAGTTGACATGGACCGGTTTTCCCGGTAATCCGTATTTGCT (site TAGTTGACTAG) | 2.13
TAGTTGACATGGACCGGTTTTCCCGGTAATCCGTATTTGCT (site TATTTGACTAG) | 0.0101
TATAAGACATGGACCGGTTTTCCCGGTAATCCGTATTTGAC (site TATAAGACTGT) | 2.01
TATAATTCATGGACCGGTTTTCCCGGTAATCCGTATTTGAC (site TATAATTCTGT) | 0.209
TATAGCCCATGGACCGGTTTTCCCGGTAATCCGTATTTGTA (site TATAGCCCTTA) | 0.181
TATAGCGCATGGACCGGTTTTCCCGGTAATCCGTATTTGTG (site TATAGCGCTCA) | 0.205
TATAGGACATGGACCGGTTTTCCCGGTAATCCGTATTTGAT (site TATAGGACTAT) | 1.11
TATATGGCATGGACCGGTTTTCCCGGTAATCCGTATTTGTG (site TATATGGCTCA) | 0.368
TATATGGCATGGACCGGTTTTCCCGGTAATCCGTATTTGTG (site TATCTGGCTCA) | 0.00271
TATATGGCATGGACCGGTTTTCCCGGTAATCCGTATTTGTG (site TATGTGGCTCA) | 0.00727
TATATGGCATGGACCGGTTTTCCCGGTAATCCGTATTTGTG (site TATTTGGCTCA) | 0.0941
TATATTGCATGGACCGGTTTTCCCGGTAATCCGTATTTGTC (site TATATTGCTGA) | 0
TATCCCGCATGGACCGGTTTTCCCGGTAATCCGTATTTGCC (site TATCCCGCTGG) | 1.79
TATCCTGCATGGACCGGTTTTCCCGGTAATCCGTATTTGAC (site TATCCTGCTGT) | 0
TATCGAACATGGACCGGTTTTCCCGGTAATCCGTATTTGTT (site TATCGAACTAA) | 0.00888
TATCTCACATGGACCGGTTTTCCCGGTAATCCGTATTTGAC (site TATCTCACTGT) | 2.11

Sequence | recombinant UMI read abundance (log10)
TATCTTTCATGGACCGGTTTTCCCGGTAATCCGTATTTGAT (site TATCTTTCTAT) | 0
TATGCCACATGGACCGGTTTTCCCGGTAATCCGTATTTGTA (site TATGCCACTTA) | 0.598
TATGGCCCATGGACCGGTTTTCCCGGTAATCCGTATTTGAT (site TATGGCCCTAT) | 0.0149
TATGTAGCATGGACCGGTTTTCCCGGTAATCCGTATTTGTT (site TATGTAGCTAA) | 1.23
TATTCAACATGGACCGGTTTTCCCGGTAATCCGTATTTGCA (site GGGAACGCTAA) | 0.00333
TATTCAACATGGACCGGTTTTCCCGGTAATCCGTATTTGTG (site TATTCAACTCA) | 0.011
TATTGAGCATGGACCGGTTTTCCCGGTAATCCGTATTTGGG (site TAATGAGCTCC) | 0.0665
TATTGAGCATGGACCGGTTTTCCCGGTAATCCGTATTTGGG (site TACTGAGCTCC) | 0.0155
TATTGAGCATGGACCGGTTTTCCCGGTAATCCGTATTTGGG (site TAGTGAGCTCC) | 0.0187
TATTGAGCATGGACCGGTTTTCCCGGTAATCCGTATTTGGG (site TATTGAGCTCC) | 0
TATTGATCATGGACCGGTTTTCCCGGTAATCCGTATTTGTG (site TATTGATCTCA) | 0.805
TATTGTTCATGGACCGGTTTTCCCGGTAATCCGTATTTGTG (site TATTGTTCTCA) | 0.00773
TATTTGACATGGACCGGTTTTCCCGGTAATCCGTATTTGCT (site TAATTGACTAG) | 1.9
TATTTGACATGGACCGGTTTTCCCGGTAATCCGTATTTGCT (site TACTTGACTAG) | 0.882
TATTTGACATGGACCGGTTTTCCCGGTAATCCGTATTTGCT (site TAGTTGACTAG) | 0.852
TATTTGACATGGACCGGTTTTCCCGGTAATCCGTATTTGCT (site TATTTGACTAG) | 2.54
TATTTGACATGGACCGGTTTTCCCGGTAATCCGTATTTGTG (site TATTTGACTCA) | 0.0179
TATTTGACATGGACCGGTTTTCCCGGTAATCCGTATTTGTG (site TATTTGCCTCA) | 0.00551
TATTTGACATGGACCGGTTTTCCCGGTAATCCGTATTTGTG (site TATTTGGCTCA) | 0.00542
TATTTGACATGGACCGGTTTTCCCGGTAATCCGTATTTGTG (site TATTTGTCTCA) | 0.0134
TCAAACTCATGGACCGGTTTTCCCGGTAATCCGTATTTGCA (site TCAAACTCTTG) | 1.55
TCAAACTCATGGACCGGTTTTCCCGGTAATCCGTATTTGCA (site TCACACTCTTG) | 1.25
TCAAACTCATGGACCGGTTTTCCCGGTAATCCGTATTTGCA (site TCAGACTCTTG) | 0
TCAAACTCATGGACCGGTTTTCCCGGTAATCCGTATTTGCA (site TCATACTCTTG) | 1.92
TCAAAGCCATGGACCGGTTTTCCCGGTAATCCGTATTTGAT (site TCAAAGCCTAT) | 0.324
